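Each compound was tested at five concentrations against cells in 96-well plates for 48 hours. GI50 is the concentration that inhibits growth by half. At the TGI there is no net growth.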 A value given as a limit tells only on which side of the number the result lay.

This passage reports TGI and GI50 results from PubChem BioAssay (NCI).

Some test systems named below: ACHN renal; HCT-15 colon; HL-60(TB) leukemia; K-562 leukemia; M14 melanoma; MCF7 breast; NCI-H226 lung; OVCAR-4 ovarian; SF-295 CNS; SK-OV-3 ovarian.
Holding throughout (assay): NCI anticancer screen, dose series, 48 h

On to `O=C(CCl)Nc1cc(Cl)c(Cl)cc1Cl`, for which the TGI is 4.58 µM in the experiment with ACHN renal; 4.3 µM in the experiment on HCT-15 colon; 7.74 µM in the experiment on HL-60(TB) leukemia; above 10 µM in the experiment with K-562 leukemia; 2.96 µM in the experiment with M14 melanoma; 3.6 µM with MCF7 breast. The TGI was 2.48 µM in the experiment on NCI-H226 lung, 4.06 µM in the experiment with OVCAR-4 ovarian, above 10 µM in the experiment with SF-295 CNS and above 10 µM with SK-OV-3 ovarian.
Take `Cc1ccc(NC(=O)Nc2c(Cl)cccc2Cl)cn1`: the GI50 in the experiment on ACHN renal is 51.5 µM; with HCT-15 colon, 5.61 µM; in the experiment on HL-60(TB) leukemia, 4.23 µM; in the experiment with K-562 leukemia it was 4.03 µM; in the experiment on M14 melanoma, 12 µM; with MCF7 breast, 7.29 µM. The GI50 in the experiment with NCI-H226 lung was above 100 µM; with OVCAR-4 ovarian it was 65 µM; in the experiment with SF-295 CNS, 5.49 µM; in the experiment with SK-OV-3 ovarian, 5.97 µM. Further, the TGI with ACHN renal was above 100 µM; in the experiment on HCT-15 colon, above 100 µM; in the experiment on HL-60(TB) leukemia it was 29.7 µM; in the experiment on K-562 leukemia, above 100 µM; in the experiment with M14 melanoma it was above 100 µM; in the experiment with MCF7 breast, above 100 µM. In addition, the TGI with NCI-H226 lung, in the experiment with OVCAR-4 ovarian, in the experiment on SF-295 CNS and in the experiment on SK-OV-3 ovarian was above 100 µM each time.
Turning to `O=C(Nc1cccc(-n2cc(-c3ccncc3)c(-c3ccc(O)c(Cl)c3)n2)c1)c1cc(C(F)(F)F)cc(C(F)(F)F)c1`, the GI50 in the experiment with ACHN renal was 2.79 µM; with HCT-15 colon, 2.39 µM; with HL-60(TB) leukemia, 9.4 µM; with K-562 leukemia, 2.57 µM; in the experiment with M14 melanoma, 3.3 µM; in the experiment on MCF7 breast, 2.17 µM. For the same molecule, the GI50 in the experiment on NCI-H226 lung is 10.3 µM; with OVCAR-4 ovarian, 3.31 µM; with SF-295 CNS, 2.14 µM; in the experiment with SK-OV-3 ovarian it was 22.8 µM. The TGI with ACHN renal is above 50 µM; with HCT-15 colon it was above 50 µM; with HL-60(TB) leukemia, 27.4 µM; in the experiment with K-562 leukemia it was above 50 µM; with M14 melanoma it was above 50 µM; with MCF7 breast, above 50 µM. For the same molecule, the TGI in the experiment on NCI-H226 lung is above 50 µM; in the experiment with OVCAR-4 ovarian it was above 50 µM; in the experiment with SF-295 CNS it was 34.2 µM; in the experiment with SK-OV-3 ovarian, above 50 µM.
With `CCOc1ccc2c(c1)CN(Cc1ccc(Cl)cc1)CO2`, the GI50 was 19.3 µM in the experiment on ACHN renal; 16.5 µM in the experiment with HCT-15 colon; 19.2 µM with HL-60(TB) leukemia; 17 µM with K-562 leukemia; 16.4 µM in the experiment with MCF7 breast; 30.3 µM with NCI-H226 lung. For the same molecule, the GI50 in the experiment with OVCAR-4 ovarian was 19.8 µM; in the experiment on SF-295 CNS, 13 µM; in the experiment on SK-OV-3 ovarian it was 29.8 µM. For the same molecule, the TGI is 55 µM in the experiment on ACHN renal; 34.1 µM in the experiment on HCT-15 colon; 42.8 µM in the experiment on HL-60(TB) leukemia; 57 µM in the experiment with K-562 leukemia; 35.2 µM with MCF7 breast; above 100 µM in the experiment on NCI-H226 lung. In addition, the values for the TGI in the experiment on OVCAR-4 ovarian, in the experiment on SF-295 CNS and in the experiment with SK-OV-3 ovarian were 50.3 µM, 27.9 µM and above 100 µM, respectively.
In the case of `C[C@H](CS)C(=O)N1c2ccccc2C[C@H]1C(=O)O`, the TGI in the experiment with ACHN renal, in the experiment with HCT-15 colon, in the experiment on HL-60(TB) leukemia, in the experiment with K-562 leukemia, in the experiment on MCF7 breast and with NCI-H226 lung was above 100 µM in each case. In addition, the TGI in the experiment with OVCAR-4 ovarian, in the experiment with SF-295 CNS and in the experiment on SK-OV-3 ovarian was above 100 µM in each case.
On to `O=C1c2ccccc2C(=O)c2c1ccc1c(=O)n(-c3ccccc3C(F)(F)F)nnc21`, for which the GI50 with ACHN renal was 2.7 µM; with HL-60(TB) leukemia, 1.76 µM; in the experiment with K-562 leukemia, 1.76 µM; with MCF7 breast it was 1.86 µM; in the experiment with NCI-H226 lung, 2.38 µM; in the experiment on OVCAR-4 ovarian it was 1 µM. The figures for the GI50 in the experiment with SF-295 CNS and in the experiment with SK-OV-3 ovarian were 2.59 µM and 3.52 µM, respectively. The TGI in the experiment on ACHN renal was above 100 µM; with HL-60(TB) leukemia it was 5.48 µM; with K-562 leukemia, above 100 µM; with MCF7 breast, 4.64 µM; with NCI-H226 lung, 5.87 µM; in the experiment on OVCAR-4 ovarian it was 2.21 µM. Further, the TGI was 7.02 µM with SF-295 CNS and above 100 µM in the experiment with SK-OV-3 ovarian.
On to `COc1c(O)cc2c(c1O)C(=O)C1=C(CCCC1)C2=O`, for which the TGI with ACHN renal is 58.4 µM; in the experiment on HCT-15 colon, above 100 µM; in the experiment on HL-60(TB) leukemia, 31.9 µM; in the experiment with M14 melanoma, above 100 µM; with MCF7 breast, 80.7 µM; with NCI-H226 lung, above 100 µM. Also, the TGI in the experiment with OVCAR-4 ovarian turned out to be 95.6 µM; in the experiment with SF-295 CNS, 65.2 µM; in the experiment with SK-OV-3 ovarian, 48.8 µM.
`COc1ccccc1/C=C/C1=C(C)CCC(c2ccccc2OC)C1C` (configuration not stated): the GI50 was 0.272 µM in the experiment on ACHN renal; 0.129 µM with HCT-15 colon; 0.262 µM with HL-60(TB) leukemia; 0.16 µM in the experiment with M14 melanoma; 0.0633 µM with MCF7 breast; 0.223 µM in the experiment with NCI-H226 lung. Also, the results for the GI50 in the experiment on OVCAR-4 ovarian, with SF-295 CNS and with SK-OV-3 ovarian were 1.37 µM, below 0.0201 µM and 0.382 µM, respectively. Besides, the TGI with ACHN renal was above 100 µM; with HCT-15 colon it was above 100 µM; in the experiment with HL-60(TB) leukemia it was 0.603 µM; in the experiment with M14 melanoma, 0.655 µM; in the experiment with MCF7 breast, 1.28 µM; with NCI-H226 lung, 0.627 µM. The figures for the TGI in the experiment on OVCAR-4 ovarian, in the experiment on SF-295 CNS and in the experiment on SK-OV-3 ovarian were above 100 µM, 1.53 µM and above 100 µM, respectively.
For the molecule `O=C(/C=C/C(Cl)(Cl)Cl)Nc1ccc(Cl)cc1`, the TGI in the experiment with ACHN renal was 6.37 µM; in the experiment with HCT-15 colon, 11.4 µM; in the experiment on HL-60(TB) leukemia, 2.03 µM; with M14 melanoma it was 11.7 µM; in the experiment on MCF7 breast it was 34.3 µM; in the experiment with NCI-H226 lung it was 36.6 µM. The TGI in the experiment on OVCAR-4 ovarian was found to be 4.02 µM; in the experiment with SF-295 CNS, 28.8 µM; in the experiment with SK-OV-3 ovarian, 34.6 µM.
Take `N#Cc1ccccc1C#C/C=C\C#CC#C/C=C\C#Cc1ccccc1C#N`: the GI50 in the experiment with ACHN renal was 7.39 µM; in the experiment with HCT-15 colon it was 12.7 µM; with HL-60(TB) leukemia, 4.12 µM; with M14 melanoma it was 11.3 µM; in the experiment with MCF7 breast, 47.4 µM; in the experiment on NCI-H226 lung, 29.7 µM. For the same molecule, the GI50 with OVCAR-4 ovarian was 19.1 µM; with SF-295 CNS, 16.3 µM; in the experiment with SK-OV-3 ovarian, 28.6 µM. In addition, the TGI in the experiment on ACHN renal is 37.8 µM; with HCT-15 colon it was above 100 µM; in the experiment with HL-60(TB) leukemia it was 22.5 µM; in the experiment on M14 melanoma, 35.5 µM; with MCF7 breast, above 100 µM; in the experiment on NCI-H226 lung it was above 100 µM. In addition, the TGI is above 100 µM in the experiment with OVCAR-4 ovarian, 53 µM with SF-295 CNS and above 100 µM in the experiment on SK-OV-3 ovarian.
